Measured values: US20110178062A1, “INDOLE AND BENZOTHIOPHENE COMPOUNDS AS MODULATORS OF THE HISTAMINE H3 RECEPTOR” (priority 2007, published 2011)

How the values were obtained:
[1] = target: T1, cloned human H3 receptors, stably expressed in SK-N-MC cells (Homo sapiens, UniProt Q9Y5N1); assay: H3 Receptor Binding (Human); settings: average of the results obtained
T1 construct: expressed in transfected cells; host or cells: SK-N-MC cells
Protocol: Binding of compounds to the cloned human H3 receptors, stably expressed in SK-N-MC cells, was performed as described by Barbier, A. J. et al. (Br. J. Pharmacol. 2004, 143(5), 649-661). Data for compounds tested in this assay are presented in Table 1 as an average of the results obtained.

[2] = target: T2, Rat H3 (Rattus norvegicus, UniProt Q9QYN8); assay: H3 Receptor Binding (Rat), rat brain membranes, N-[3H]-α-methylhistamine; settings: rat brain without cerebellum; 0.8 nM N-[3H]-α-methylhistamine; average of results
Protocol: A rat brain without cerebellum (Zivic Laboratories Inc., Pittsburgh, Pa.) was homogenized in 50 mM Tris-HCl/5 mM EDTA and centrifuged at 1,000 rpm for 5 min. The supernatant was removed and recentrifuged at 15,000 rpm for 30 min. Pellets were rehomogenized in 50 mM Tris/5 mM EDTA (pH 7.4). Membranes were incubated with 0.8 nM N—[^3H]-α-methylhistamine plus/minus test compounds for 60 min at 25° C. and harvested by rapid filtration over GF/C glass fiber filters (pretreated with 0.3% polyethylenimine) followed by four washes with buffer. Nonspecific binding was defined in the presence of 100 μM histamine. Inhibitory concentration (responsible for 50% inhibition of maximal effect, IC50) values were determined by a single site curve-fitting program (GraphPad, San Diego, Calif.) and converted to Ki values based on a N—[^3H]-α-methylhistamine dissociation constant (Kd) of 0.8 nM. Data for compounds tested in this assay are presented in Table 2 as an average of the results obtained.
Target sequence in this assay (Q9QYN8 1-397 isoform Q9QYN8-3): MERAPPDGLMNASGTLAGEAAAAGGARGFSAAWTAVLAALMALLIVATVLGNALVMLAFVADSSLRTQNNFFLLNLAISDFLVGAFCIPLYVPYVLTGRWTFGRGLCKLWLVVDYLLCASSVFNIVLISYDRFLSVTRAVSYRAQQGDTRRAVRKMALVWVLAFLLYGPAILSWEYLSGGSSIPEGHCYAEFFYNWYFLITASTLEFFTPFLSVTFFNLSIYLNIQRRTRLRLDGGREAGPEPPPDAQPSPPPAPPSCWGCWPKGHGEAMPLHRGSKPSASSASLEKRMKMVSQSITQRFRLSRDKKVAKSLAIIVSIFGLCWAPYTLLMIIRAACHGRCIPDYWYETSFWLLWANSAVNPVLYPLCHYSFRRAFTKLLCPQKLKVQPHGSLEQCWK

[3] = target: T3, human H3 receptor (Homo sapiens, UniProt Q9Y5N1); assay: Cyclic AMP Accumulation, SK-N-MC reporter cells (human H3); assay type: cell-based; settings: SK-N-MC cells expressing reporter construct and human H3 receptor; read-out: Human pA2 (converted)
T3 construct: expressed in transfected cells; host or cells: SK-N-MC cells
Excerpt: (§1) Sublines of SK-N-MC cells were created that expressed a reporter construct and either the human or rat H3 receptor. The pA2 values were obtained as described by Barbier et al. (2004). Data for compounds tested in these assays are presented in Table 3, as an average of the results obtained (NT=not tested).

[4] = target: T2, Rat H3; assay: Cyclic AMP Accumulation, SK-N-MC reporter cells (rat H3); assay type: cell-based; set-up: expressed in transfected cells; host or cells: SK-N-MC cells (subline with reporter construct); settings: SK-N-MC cells expressing reporter construct and rat H3 receptor; read-out: Rat pA2 (converted)
Excerpt: as §1
Target sequence in this assay (Q9QYN8 whole entry): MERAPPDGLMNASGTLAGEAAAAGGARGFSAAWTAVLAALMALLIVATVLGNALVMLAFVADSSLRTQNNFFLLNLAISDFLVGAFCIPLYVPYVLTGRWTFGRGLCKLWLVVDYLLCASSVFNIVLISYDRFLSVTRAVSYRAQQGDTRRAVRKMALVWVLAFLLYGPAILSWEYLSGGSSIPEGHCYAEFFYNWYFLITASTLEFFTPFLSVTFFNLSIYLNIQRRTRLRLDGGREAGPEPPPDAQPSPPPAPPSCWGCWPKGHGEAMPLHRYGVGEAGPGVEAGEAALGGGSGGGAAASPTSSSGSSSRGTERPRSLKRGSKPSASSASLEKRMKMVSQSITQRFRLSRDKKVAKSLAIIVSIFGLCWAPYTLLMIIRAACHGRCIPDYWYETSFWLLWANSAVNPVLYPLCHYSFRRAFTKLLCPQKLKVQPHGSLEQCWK

T1 sequence (Q9Y5N1 whole entry): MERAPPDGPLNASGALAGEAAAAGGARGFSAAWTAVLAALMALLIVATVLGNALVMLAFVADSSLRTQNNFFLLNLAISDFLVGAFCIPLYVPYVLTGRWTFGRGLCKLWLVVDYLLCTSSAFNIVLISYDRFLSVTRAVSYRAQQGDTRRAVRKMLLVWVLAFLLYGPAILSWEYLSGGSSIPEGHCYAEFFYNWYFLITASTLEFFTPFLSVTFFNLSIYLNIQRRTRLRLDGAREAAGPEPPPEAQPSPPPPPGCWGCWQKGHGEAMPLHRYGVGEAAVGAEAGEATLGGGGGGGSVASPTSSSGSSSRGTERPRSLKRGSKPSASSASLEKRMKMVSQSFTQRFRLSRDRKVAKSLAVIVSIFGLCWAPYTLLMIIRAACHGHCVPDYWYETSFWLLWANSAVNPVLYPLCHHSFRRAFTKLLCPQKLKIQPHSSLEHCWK
T3 sequence (Q9Y5N1 whole entry): as above

SMILES | Ki [1] [nM] | Ki [2] [nM] | Kb [3] [nM] | Kb [4] [nM]
CC(C)N1CCN(C(=O)c2ccc3scc(CN4CCCCC4)c3c2)CC1 [Example 102, (4-Isopropyl-piperazin-1-yl)-(3-piperidin-1-ylmethyl-benzo[b]thiophen-5-yl)-methanone] | 17 | 228 |  | 
CC(C)N1CCN(C(=O)c2ccc3c(CN4CCCC4)c[nH]c3c2)CC1 [Example 58, (4-Isopropyl-piperazin-1-yl)-(3-pyrrolidin-1-ylmethyl-1H-indol-6-yl)-methanone] |  | 2 |  | 
O=C(c1cccc2c(CN3CCOCC3)c[nH]c12)N1CCN(C2CCC2)CC1 [Example 21, (4-Cyclobutyl-piperazin-1-yl)-(3-morpholin-4-ylmethyl-1H-indol-7-yl)-methanone] | 5 | 19 | 1.1 | 
O=C(c1ccc2c(CN3CCN(C4CCCC4)CC3)c[nH]c2c1)N1CCCCCC1 [Example 91, Azepan-1-yl-[3-(4-cyclopentyl-piperazin-1-ylmethyl)-1H-indol-6-yl]-methanone] | 26 |  | 46.8 | 67.6
CC(C)N1CCN(C(=O)c2cccc3c(CN4CCOCC4)c[nH]c23)CC1 [Example 20, (4-Isopropyl-piperazin-1-yl)-(3-morpholin-4-ylmethyl-1H-indol-7-yl)-methanone] | 10 |  | 8.13 | 
O=C(c1ccc2c(CN3CCN(C4CCC4)CC3)c[nH]c2c1)N1CCCCC1 [Example 29, [3-(4-Cyclobutyl-piperazin-1-ylmethyl)-1H-indol-6-yl]-piperidin-1-yl-methanone] | 11 | 438 |  | 
CN(C)C1CCN(Cc2c[nH]c3cc(C(=O)N4CCC(Cc5ccccc5)CC4)ccc23)CC1 [Example 100, (4-Benzyl-piperidin-1-yl)-[3-(4-dimethylamino-piperidin-1-ylmethyl)-1H-indol-6-yl]-methanone] | 233 |  |  | 
CC(C)N1CCCN(Cc2c[nH]c3cc(C(=O)N4CCCCCC4)ccc23)CC1 [Example 95, Azepan-1-yl-[3-(4-isopropyl-[1,4]diazepan-1-ylmethyl)-1H-indol-6-yl]-methanone] | 42 |  |  | 
Cc1cccnc1CNC(=O)c1ccc2c(CN3CCCCC3)c[nH]c2c1 [Example 17, 3-Piperidin-1-ylmethyl-1H-indole-6-carboxylic acid (3-methyl-pyridin-2-ylmethyl)-amide] | 114 |  |  | 
O=C(NCc1cccnc1)c1ccc2c(CN3CCOCC3)c[nH]c2c1 [Example 10, 3-Morpholin-4-ylmethyl-1H-indole-6-carboxylic acid (pyridin-3-ylmethyl)-amide] | 5010 |  |  | 
CN(C)C1CCN(Cc2c[nH]c3cc(C(=O)N4CCC(c5ccccc5)CC4)ccc23)C1 (stereo not shown) [Example 87, [3-(3-Dimethylamino-pyrrolidin-1-ylmethyl)-1H-indol-6-yl]-(4-phenyl-piperidin-1-yl)-methanone] | 20 |  |  | 
Cn1cc(CN2CCOCC2)c2ccc(C(=O)N3CCN(C4CC4)CC3)cc21 [Example 2, (4-Cyclopropyl-piperazin-1-yl)-(1-methyl-3-morpholin-4-ylmethyl-1H-indol-6-yl)-methanone] | 46 |  |  | 
CC(C)N1CCN(C(=O)c2ccc3c(CN4CCN(S(C)(=O)=O)CC4)c[nH]c3c2)CC1 [Example 54, (4-Isopropyl-piperazin-1-yl)-[3-(4-methanesulfonyl-piperazin-1-ylmethyl)-1H-indol-6-yl]-methanone] | 12 |  |  | 
O=C(c1ccc2c(CN3CCN(C4CCC4)CC3)c[nH]c2c1)N1CCCCCC1 [Example 93, Azepan-1-yl-[3-(4-cyclobutyl-piperazin-1-ylmethyl)-1H-indol-6-yl]-methanone] | 38 |  |  | 

More lines, in order of falling Ki [1], values ahead:

Ki [1] [nM] | Ki [2] [nM] | Kb [3] [nM] | Kb [4] [nM] | SMILES
4 | 133 |  |  | CC(C)N1CCCN(C(=O)c2ccc3[nH]cc(CN4CCCCC4)c3c2)CC1 [Example 34, (4-Isopropyl-[1,4]diazepan-1-yl)-(3-piperidin-1-ylmethyl-1H-indol-5-yl)-methanone]
3 |  | 3.09 |  | CC(C)N1CCN(C(=O)c2ccc3c(CN4CCCCC4)cn(S(C)(=O)=O)c3c2)CC1 [Example 25, (4-Isopropyl-piperazin-1-yl)-(1-methanesulfonyl-3-piperidin-1-ylmethyl-1H-indol-6-yl)-methanone]
2 | 98 | 3.72 |  | CC(C)N1CCN(C(=O)c2ccc3c(CN4CCOCC4)cn(C)c3c2)CC1 [Example 1, (4-Isopropyl-piperazin-1-yl)-(1-methyl-3-morpholin-4-ylmethyl-1H-indol-6-yl)-methanone]
2 |  | 1.07 |  | CC(C)N1CCN(C(=O)c2ccc3c(CN4CCCC(CO)C4)c[nH]c3c2)CC1 (stereo not shown) [Example 44, [3-(3-Hydroxymethyl-piperidin-1-ylmethyl)-1H-indol-6-yl]-(4-isopropyl-piperazin-1-yl)-methanone]
2 |  | 1.82 |  | CC(C)N1CCN(C(=O)c2ccc3c(CN4CCN(c5ccccc5)CC4)c[nH]c3c2)CC1 [Example 45, (4-Isopropyl-piperazin-1-yl)-[3-(4-phenyl-piperazin-1-ylmethyl)-1H-indol-6-yl]-methanone]
2 |  | 0.575 |  | O=C(c1cccc2c(CN3CCCCC3)c[nH]c12)N1CCN(C2CCC2)CC1 [Example 23, (4-Cyclobutyl-piperazin-1-yl)-(3-piperidin-1-ylmethyl-1H-indol-7-yl)-methanone]
1 | 14 | 0.234 |  | CC(C)N1CCN(C(=O)c2ccc3c(CN4CCOCC4)c[nH]c3c2)CC1 [Example 4, (4-Isopropyl-piperazin-1-yl)-(3-morpholin-4-ylmethyl-1H-indol-6-yl)-methanone]
1 |  | 0.501 |  | Cn1cc(CN2CCOCC2)c2ccc(C(=O)N3CCN(C4CCC4)CC3)cc21 [Example 3, (4-Cyclobutyl-piperazin-1-yl)-(1-methyl-3-morpholin-4-ylmethyl-1H-indol-6-yl)-methanone]
1 | 28 | 0.537 |  | O=C(c1ccc2c(CN3CCOCC3)c[nH]c2c1)N1CCN(C2CC2)CC1 [Example 5, (4-Cyclopropyl-piperazin-1-yl)-(3-morpholin-4-ylmethyl-1H-indol-6-yl)-methanone]
1 |  |  |  | O=C(c1ccc2c(CN3CCOCC3)c[nH]c2c1)N1CCCN(C2CCC2)CC1 [Example 9, (4-Cyclobutyl-[1,4]diazepan-1-yl)-(3-morpholin-4-ylmethyl-1H-indol-6-yl)-methanone]
1 |  |  |  | CC(C)N1CCN(C(=O)c2ccc3c(CN4CCN(c5ccncc5)CC4)c[nH]c3c2)CC1 [Example 64, (4-Isopropyl-piperazin-1-yl)-[3-(4-pyridin-4-yl-piperazin-1-ylmethyl)-1H-indol-6-yl]-methanone]
1 |  | 0.155 |  | O=C(c1ccc2c(CN3CCOCC3)c[nH]c2c1)N1CCN(C2CCC2)CC1 [Example 6, (4-Cyclobutyl-piperazin-1-yl)-(3-morpholin-4-ylmethyl-1H-indol-6-yl)-methanone]
1 |  | 1.17 |  | CC(C)N1CCN(C(=O)c2ccc3c(CN4CCC(c5ccccc5)CC4)c[nH]c3c2)CC1 [Example 57, (4-Isopropyl-piperazin-1-yl)-[3-(4-phenyl-piperidin-1-ylmethyl)-1H-indol-6-yl]-methanone]
1 |  |  |  | O=C(c1ccc2c(CN3CCOCC3)c[nH]c2c1)N1CCCN(C2CC2)CC1 [Example 8, (4-Cyclopropyl-[1,4]diazepan-1-yl)-(3-morpholin-4-ylmethyl-1H-indol-6-yl)-methanone]
1 | 2 |  | 2 | CC(C)N1CCCN(C(=O)c2ccc3c(CN4CCOCC4)c[nH]c3c2)CC1 [Example 7, (4-Isopropyl-[1,4]diazepan-1-yl)-(3-morpholin-4-ylmethyl-1H-indol-6-yl)-methanone]
